The subject of data set [1] is cytochrome P-450 isozymes. To be noted: in vitro; cited from earlier work.
For data set [2] the following is noted: rats, cited from earlier work.
The conditions of data set [3]: intravenous; cited from earlier work.
For data set [4] the following is noted: rat, in vivo; cited from earlier work.
For data set [5] the following is noted: mouse; cited from earlier work.
For data set [6] the following is noted: intravenous; cited from earlier work. This is another data set of the same source.
For data set [7] the following is noted: human, in vivo; cited from earlier work.
The conditions of data set [8]: rabbits, 6 mg/kg/day; cited from earlier work.
The conditions of data set [9]: cited from earlier work.
The conditions of data set [10]: in vivo.
Source text: Serum bilirubin within the institutional normal range, albumin≧3 g/dL, and Karnofsky Performance Status (KPS)≧70 were required for study entry.
TEAEs were graded by NCI CTCAE v4.0 and coded by MedDRA v14.1 for the following prespecified subgroups: sex, age (<65 vs ≧65 years), ethnicity (white vs Asian), UGT1A1*28 status, prior conventional irinotecan therapy (yes vs no), and prior 5-FU therapy (yes vs no). All TEAEs were followed until resolution or patient discontinuation. Analyses were performed on the safety population (ie, those who received≧1 dose of study medication).
All TEAEs were followed until resolution or patient discontinuation. The safety analysis population included all patients who received≧1 dose of study drug. The presence of the UGT1A1*28 allele was determined by genotype testing, and homozygous patients were identified (A7/TA7 genotype)
For data set [11] the following is noted: dog, in vivo.

Structures can show the parent of a compound that is named as a salt. Where two headings read alike, the source gives them in different places.

Regarding `CCc1c2c(nc3ccc(O)cc13)-c1cc3c(c(=O)n1C2)COC(=O)[C@]3(O)CC` [SN-38], the “Inhibition of cytochrome P-450 isozymes” value in [1] is listed as “do not inhibit cytochrome P-450 isozymes”.
`CCc1c2c(nc3ccc(OC(=O)N4CCC(N5CCCCC5)CC4)cc13)-c1cc3c(c(=O)n1C2)COC(=O)[C@]3(O)CC` [irinotecan HCl, (5) 4,11-diethyl-3,4,12,14-tetrahydro-4-hydroxy-3,14-dioxo1H-pyrano[3′,4′:6,7]-indolizino[1,2 b]quinolin-9-yl-[1,4′bipiperidine]-1′-carboxylate, monohydrochloride, trihydrate]: the “Effects in offspring, dams dosed after organogenesis through weaning” value in data set [2] (6 mg/kg/day) is “decreased learning ability and decreased female body weights in the offspring”. The “Doses giving structural abnormalities and growth delays” value in data set [2] is listed as “greater than 1.2 mg/kg/day”. For the same molecule, the “Time to appearance of radioactivity in milk” value in data set [3] is ≤ 5 min. For the same molecule, the Carcinogenicity finding entry in [4] is “significant linear trend between irinotecan HCl dosage and the incidence of combined uterine horn endometrial stromal polyps and endometrial stromal sarcomas”. The Clastogenicity in vivo result in data set [5] is “clastogenic”. The “Doses without significant adverse effects on fertility and general reproductive performance” value in [6] is “up to 6 mg/kg/day”. In [7], the “Effect of dexamethasone (moderate CYP3A4 inducer) on pharmacokinetics of irinotecan” value is “does not alter the pharmacokinetics of irinotecan”; the “Exposure to irinotecan and SN-38 with concomitant ketoconazole” value is “increased exposure”; the “Exposure to irinotecan or SN-38 with CYP3A4 enzyme-inducing anticonvulsants or St. John's wort” value was “substantially reduced”; the “Urinary excretion of SN-38” value is given as < 1%. Further, the “Urinary excretion of SN-38 glucuronide” value in data set [7] is recorded as 3%.
`CCc1c2c(nc3ccc(OC(=O)N4CCC(N5CCCCC5)CC4)cc13)-c1cc3c(c(=O)n1C2)COC(=O)[C@]3(O)CC` [irinotecan, (5) 4,11-diethyl-3,4,12,14-tetrahydro-4-hydroxy-3,14-dioxo1H-pyrano[3′,4′: 6,7]-indolizino[1,2b]quinolin-9-yl-[1,4′bipiperidine]-1′-carboxylate]: the “Embryo-fetal effects, intravenous during organogenesis” value was “increased post-implantation loss and decreased numbers of live fetuses” in [2] (6 mg/kg/day); “increased post-implantation loss and decreased numbers of live fetuses” in data set [8]. Moreover, the Placental transfer entry in [2] (intravenous) is “crosses the placenta”. Further, the “Incidence of grade 4 neutropenia” value in data set [9] (350 mg/m2 once every-3-weeks, homozygous UGT1A1*28) is given as ≤ 50%; in data set [9] (heterozygous (UGT1A1 6/7 genotype)), 12.5%; in data set [9] (homozygous wild-type (UGT1A1 6/6 genotype)), “no grade 4 neutropenia was observed”. Further, the “Inhibition of cytochrome P-450 isozymes” value in [1] is “do not inhibit cytochrome P-450 isozymes”.
Consider “irinotecan sucrose octasulfate salt liposome injection [MM-398]”, for which the “Incidence of neutropenic sepsis” value in [10] turned out to be 0.8%. In addition, the “Doses with atrophy of male and female reproductive organs” value in data set [11] is ≥ 13 mg/kg.

Values taken from US20170202840A1, “TREATMENT OF PANCREATIC CANCER WITH LIPOSOMAL IRINOTECAN” (MERRIMACK PHARMACEUTICALS, INC., priority 2016, published 2017).
